In data set [1] the target is T1, human IL-23R (Homo sapiens, UniProt Q5VWK5).
T1 construct: Nanoluc luciferase (Nluc); secretion signal encoded by the plasmid (not specified); expressed in transfected cells; crude membranes used in the assay
T1 sequence (Q5VWK5 22-629): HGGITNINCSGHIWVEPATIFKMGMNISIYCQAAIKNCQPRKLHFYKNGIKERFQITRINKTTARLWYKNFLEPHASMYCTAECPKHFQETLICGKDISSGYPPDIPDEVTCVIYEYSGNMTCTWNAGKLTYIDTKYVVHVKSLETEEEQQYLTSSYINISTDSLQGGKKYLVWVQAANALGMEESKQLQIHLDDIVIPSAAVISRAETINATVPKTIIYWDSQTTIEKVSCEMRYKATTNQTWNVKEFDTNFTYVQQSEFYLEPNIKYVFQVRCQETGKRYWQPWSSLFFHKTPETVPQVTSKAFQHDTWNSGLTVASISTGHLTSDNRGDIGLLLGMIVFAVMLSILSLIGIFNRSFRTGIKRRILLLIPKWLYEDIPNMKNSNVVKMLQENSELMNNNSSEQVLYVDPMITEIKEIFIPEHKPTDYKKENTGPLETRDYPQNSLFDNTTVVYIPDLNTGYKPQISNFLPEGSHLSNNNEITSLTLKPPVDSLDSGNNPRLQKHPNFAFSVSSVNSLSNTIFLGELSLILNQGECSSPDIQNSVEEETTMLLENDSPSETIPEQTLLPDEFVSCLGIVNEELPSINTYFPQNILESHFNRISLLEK
Kind of data set: Binding assay: displacement of fluorophore (TAMRA)-labelled reference compound from human IL-23R (BRET, Nluc-IL23R fusion protein membranes). As to conditions: for Emax: read-out: % displacement (hIL-23R binding). Background: Bioluminescence resonance energy transfer reports proximity on the nanometre scale.

Data set [2] concerns IL-23 mediated STAT3 signalling (DB cells). As to the kind of experiment: Functional inhibition of IL-23 mediated STAT3 signalling (phospho-STAT3 Tyr705) in DB cells. Format: cell-based, human. As to conditions: for IC50: Table 3-2, EC80 of hIL-23, read-out: hIL-23 (pSTAT3) antagonist IC50; for hIL-23 (pSTAT3) antagonist % inhibition: Table 3-2, maximal inhibitory response, EC80 of hIL-23. Put shortly:
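Phospho-STAT3 in lysed DB cells quantified by MSD kit after 90 min exposure to EC80 human IL-23, following 15 min compound pretreatment (37° C, 5% CO2). IC50 and maximal inhibition derived from curves normalized between IL-23-only and buffer-only controls.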

Data set [3] in a line: Peptide stability in simulated intestinal fluid (SIF). It is filed as in vitro ADME. The note with it: pig, simulated intestinal fluid, SIF, pH 6.8, pancreatin, 37° C., 10 μM; for remaining at 4 h, 10 µM: read-out: SIF (% remaining 4 h). In outline: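 Peptide at 10 μM final in USP-type SIF (10 g/L porcine pancreatin, phosphate buffer pH 6.8), shaken at 37 °C. Samples at 0, 1 and 4 h quenched in acetonitrile/0.1% formic acid and analysed by LC-HRMS. Percent remaining calculated from absolute peak areas relative to time zero.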

Data set [4] is described as follows: Peptide stability in simulated gastric fluid (SGF). It is filed as in vitro ADME. As to conditions: pig, pH 1.2, pepsin, 37° C. In outline:
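Peptide (10 μM final) incubated at 37 °C in USP SGF, pH 1.2 with porcine pepsin 3.2 g/L; aliquots at 0, 1 and 4 h quenched in acidified acetonitrile.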

*1 amine or outer side, *2 acyl side, *3 side chain or, on linkers, in order; H or OH if unused. Where a SMILES comes first, the peptide text is derived from it. Bridges are numbered along the chain shown (N, C = ends). [ ]: non-standard residue; d: D form. The star is where a group is joined. 2Nal = N[C@@H](Cc1ccc2ccccc2c1)C(=O)O; AEF = NCCOc1ccc(C[C@H](N)C(=O)O)cc1; X1 = O=C(Cc1ccc(CN[*:1])cc1)[*:2]; 3Pal = N[C@@H](Cc1cccnc1)C(=O)O; αMeL = CC(C)C[C@](C)(N)C(=O)O; Orn = NCCC[C@H](N)C(=O)O; Pyrrolidide = C1CCN(*)C1; Dab = NCC[C@H](N)C(=O)O

Usually IC50 stands for the concentration needed to halve the response being measured. With `CNC(=O)[C@H](Cc1cccnc1)NC(=O)[C@H](CCN)NC(=O)[C@@H]1CCC(=O)NCc2ccc(cc2)CC(=O)N[C@@H](CO)C(=O)N[C@H]2CCC(=O)NCC[C@H](NC(=O)[C@H](CCCCNC(C)=O)NC(=O)[C@H](Cc3c[nH]c4ccccc34)NC2=O)C(=O)N[C@@H](Cc2ccc(OCCN)cc2)C(=O)N[C@@H](Cc2ccc3ccccc3c2)C(=O)N[C@@](C)(CC(C)C)C(=O)N1` [Compound 24, [4-Aminomethyl-phenylacetyl](1c)*SE(2c)W[K(Ac)][Dab](2c)[Y(2-aminoethoxy)][2-Nal][2-Me-Leu]E(1c)[Dab][3-(3-Pyridyl)-Ala]-[NHMe]] ([X1]SEWK(Ac)[Dab][AEF][2Nal][αMeL]E[Dab][3Pal]-NHMe; lactam 3-6, N-10), the Emax in data set [1] stood at 97%. In data set [2], the IC50 is 58 pM and the “hIL-23 (pSTAT3) antagonist % inhibition” value was 98%. Also, in data set [3], the fraction remaining at 1 h, 10 µM is 91% and the amount remaining at 4 h, 10 µM is 89%. Further, in data set [4], the amount remaining at 1 h, 10 µM is 93% and the amount remaining at 4 h, 10 µM is 90%.
As for `CNC(=O)[C@H](Cc1cccnc1)NC(=O)[C@H](CCN)NC(=O)[C@@H]1CCC(=O)NCc2ccc(cc2)CC(=O)N[C@@H](CO)C(=O)N[C@H]2CCC(=O)NCC[C@H](NC(=O)[C@H](CCNC(C)=O)NC(=O)[C@H](Cc3c[nH]c4ccccc34)NC2=O)C(=O)N[C@@H](Cc2ccc(OCCN)cc2)C(=O)N[C@@H](Cc2ccc3ccccc3c2)C(=O)N[C@@](C)(CC(C)C)C(=O)N1` [Compound 25, [4-Aminomethyl-phenylacetyl](1c)*SE(2c)W[Dab(Ac)][Dab](2c)[Y(2-aminoethoxy)][2-Nal][2-Me-Leu]E(1c)[Dab][3-(3-Pyridyl)-Ala]-[NHMe]] ([X1]SEW[Dab](Ac)[Dab][AEF][2Nal][αMeL]E[Dab][3Pal]-NHMe; lactam 3-6, N-10), the results for the IC50 in data set [1] and in data set [2] were 11 pM and 76 pM, respectively. Moreover, the “hIL-23 (pSTAT3) antagonist % inhibition” value in data set [2] was 100%. Besides, the share remaining at 1 h, 10 µM in data set [3] was 88%; in data set [4] it was 93%.
As for `CNC(=O)[C@H](Cc1cccnc1)NC(=O)[C@H](CCN)NC(=O)[C@@H]1CCC(=O)NCc2ccc(cc2)CC(=O)N[C@@H](CO)C(=O)N[C@H]2CCC(=O)NCC[C@H](NC(=O)[C@H](CCC(=O)N3CCCC3)NC(=O)[C@H](Cc3c[nH]c4ccccc34)NC2=O)C(=O)N[C@@H](Cc2ccc(OCCN)cc2)C(=O)N[C@@H](Cc2ccc3ccccc3c2)C(=O)N[C@@](C)(CC(C)C)C(=O)N1` [Compound 27, [4-Aminomethyl-phenylacetyl](1c)*SE(2c)W[Q(pyrrolidin)][Dab](2c)[Y(2-aminoethoxy)][2-Nal][2-Me-Leu]E(1c)[Dab][3-(3-Pyridyl)-Ala]-[NHMe]] ([X1]SEWE(Pyrrolidide)[Dab][AEF][2Nal][αMeL]E[Dab][3Pal]-NHMe; lactam 3-6, N-10), in data set [1], the IC50 was 17 pM and the Emax amounted to 97%. Besides, in data set [2], the half-maximal inhibitory concentration (IC50) came to 230 pM and the “hIL-23 (pSTAT3) antagonist % inhibition” value was found to be 100%. In addition, in data set [3], the fraction remaining at 1 h, 10 µM is 90% and the share remaining at 4 h, 10 µM was 85%. In addition, in data set [4], the fraction remaining at 1 h, 10 µM is 101% and the fraction remaining at 4 h, 10 µM is 96%.
Take `CNC(=O)[C@H](Cc1cccnc1)NC(=O)[C@H](CCN)NC(=O)[C@@H]1CCC(=O)NCc2ccc(cc2)CC(=O)N[C@@H](CO)C(=O)N[C@H]2CCC(=O)NCC[C@H](NC(=O)[C@H](CCCN)NC(=O)[C@H](Cc3c[nH]c4ccccc34)NC2=O)C(=O)N[C@@H](Cc2ccc(OCCN)cc2)C(=O)N[C@@H](Cc2ccc3ccccc3c2)C(=O)N[C@@](C)(CC(C)C)C(=O)N1` [Compound 28, [4-Aminomethyl-phenylacetyl](1c)*SE(2c)W[Orn][Dab](2c)[Y(2-aminoethoxy)][2-Nal][2-Me-Leu]E(1c)[Dab][3-(3-Pyridyl)-Ala]-[NHMe]] ([X1]SEW[Orn][Dab][AEF][2Nal][αMeL]E[Dab][3Pal]-NHMe; lactam 3-6, N-10): the IC50 in data set [1] is 11 pM; in data set [2], 52 pM. Moreover, the Emax in data set [1] came to 97%. The “hIL-23 (pSTAT3) antagonist % inhibition” value in data set [2] is recorded as 101%. The share remaining at 1 h, 10 µM in data set [3] was 106%; in data set [4], 100%.
As for `CNC(=O)[C@H](Cc1cccnc1)NC(=O)[C@H](CCN)NC(=O)[C@@H]1CCC(=O)NCc2ccc(cc2)CC(=O)N[C@@H](CO)C(=O)N[C@H]2CCC(=O)NCC[C@H](NC(=O)[C@H](CCC(=O)N(C)C)NC(=O)[C@H](Cc3c[nH]c4ccccc34)NC2=O)C(=O)N[C@@H](Cc2ccc(OCCN)cc2)C(=O)N[C@@H](Cc2ccc3ccccc3c2)C(=O)N[C@@](C)(CC(C)C)C(=O)N1` [Compound 30, [4-Aminomethyl-phenylacetyl](1c)*SE(2c)W[Q(2Me)][Dab](2c)[Y(2-aminoethoxy)][2-Nal][2-Me-Leu]E(1c)[Dab][3-(3-Pyridyl)-Ala]-[NHMe]] ([X1]SEWE(NMe2)[Dab][AEF][2Nal][αMeL]E[Dab][3Pal]-NHMe; lactam 3-6, N-10), the Emax in data set [1] came out at 104%. In addition, in data set [2], the IC50 stood at 77 pM and the “hIL-23 (pSTAT3) antagonist % inhibition” value was 103%. Also, the amount remaining at 1 h, 10 µM in data set [3] was 94%. For the same molecule, in data set [4], the fraction remaining at 1 h, 10 µM is 92% and the share remaining at 4 h, 10 µM was 89%.
As for `CNC(=O)[C@H](Cc1cccnc1)NC(=O)[C@H](CO)NC(=O)[C@@H]1CCC(=O)NCc2ccc(cc2)CC(=O)N[C@@H](CO)C(=O)N[C@H]2CCC(=O)NCC[C@H](NC(=O)[C@H](CCC(N)=O)NC(=O)[C@H](Cc3c[nH]c4ccccc34)NC2=O)C(=O)N[C@@H](Cc2ccc(OCCN)cc2)C(=O)N[C@@H](Cc2ccc3ccccc3c2)C(=O)N[C@@](C)(CC(C)C)C(=O)N1` [Compound 31, [4-Aminomethyl-phenylacetyl](1c)*SE(2c)WQ[Dab](2c)[Y(2-aminoethoxy)][2-Nal][2-Me-Leu]E(1c)S[3-(3-Pyridyl)-Ala]-[NHMe]] ([X1]SEWQ[Dab][AEF][2Nal][αMeL]ES[3Pal]-NHMe; lactam 3-6, N-10), in data set [1], the Emax is 97%. In data set [2], the IC50 was found to be 60 pM and the “hIL-23 (pSTAT3) antagonist % inhibition” value turned out to be 101%. Besides, the amount remaining at 1 h, 10 µM in data set [3] is 77%. Further, in data set [4], the amount remaining at 1 h, 10 µM is 101% and the share remaining at 4 h, 10 µM was 99%.
In the case of `CNC(=O)[C@H](Cc1cccnc1)NC(=O)[C@H](CCO)NC(=O)[C@@H]1CCC(=O)NCc2ccc(cc2)CC(=O)N[C@@H](CO)C(=O)N[C@H]2CCC(=O)NCC[C@H](NC(=O)[C@H](CCC(N)=O)NC(=O)[C@H](Cc3c[nH]c4ccccc34)NC2=O)C(=O)N[C@@H](Cc2ccc(OCCN)cc2)C(=O)N[C@@H](Cc2ccc3ccccc3c2)C(=O)N[C@@](C)(CC(C)C)C(=O)N1` [Compound 36, [4-Aminomethyl-phenylacetyl](1c)*SE(2c)WQ[Dab](2c)[Y(2-aminoethoxy)][2-Nal][2-Me-Leu]E(1c)[hSer][3-(3-Pyridyl)-Ala]-[NHMe]], in data set [1], the Emax turned out to be 94%. In addition, in data set [2], the IC50 amounted to 34 pM and the “hIL-23 (pSTAT3) antagonist % inhibition” value is listed as 103%. Moreover, in data set [3], the share remaining at 1 h, 10 µM is 99%. Moreover, the fraction remaining at 4 h, 10 µM in data set [4] was 103%.

These data come from patent US20260327264A1, “PEPTIDE INHIBITORS OF INTERLEUKIN-23 RECEPTOR” (Zealand Pharma A/S, priority 2023, published 2026).
